The assay deals with CEM cells HIV-1 protection, formazan growth assay. The experiment in a line: NCI AIDS Antiviral Assay. Conditions: for pIC50: measured here: growth of uninfected CEM cells. The essentials: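 Protection of CEM cells against HIV-1 measured as cell growth via soluble formazan read-out, with five concentrations tested on both infected and uninfected cells; failure to protect may reflect toxicity.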

Each structure is given as a SMILES string. pEC50, pIC50: −log10 of the molar value. Activity calls are given as the source filed them.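 Rule for the calls: active = compounds giving half or more protection of infected cells from virus-caused growth loss, again on retest; inactive = the rest.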 Where a SMILES comes first, the peptide text is derived from it. [ ]: non-standard residue; d: D form. The star is where a group is joined. ξ: configuration not given here. ξPhe(4-NO2) = NC(Cc1ccc([N+](=O)[O-])cc1)C(=O)O; Cbz = O=C(OCc1ccccc1)*; Boc = CC(C)(C)OC(=O)*; OBn = c1ccc(CO*)cc1; Bn = c1ccc(C*)cc1 A value given as a limit tells only on which side of the number the result lay.

For `COC(=O)C1=CC2OC1(C)C1(CC1)C2=O` (stereo not given), the outcome was inactive. On to `CC1OC(OC2C(OC(=O)[C@]34CCC(C)(C)CC3C3=CCC5[C@@]6(C)C[C@H](O)[C@H](OC7OC(CO)C(O)C(O)C7N)[C@@](C)(C(=O)O)C6CC[C@@]5(C)C3(C)CC4)OCC(O)C2O)C(O)C(O)C1OC1OCC(O)C(O)C1O` (stereo not given in full), for which the pEC50 (in general, the negative decadic logarithm of the EC50, by convention in mol/L) is less than 3.91 and the pIC50 (as a rule, the negative decadic logarithm of the IC50, by convention in mol/L) is less than 3.91. For `CC(=O)N=C1N(/C=C2\C(=O)Oc3ccccc3C2=O)C(=O)/C(=C/c2ccc3c(c2)OCO3)N1C`, the pEC50 was less than 3.70 and the pIC50 is less than 3.70. `N#Cc1c2nc3ccccc3nc2n2ccc3ccccc3c12`: the pEC50 is less than 3.70 and the negative logarithm of the IC50 (pIC50) is less than 3.70. For `CC(C)(CNC(=O)/C(Cl)=C(/Cl)C(=O)O)CNC(=O)/C(Cl)=C(/Cl)C(=O)O`, the pEC50 is less than 3.70 and the pIC50 was 4.77. Take `O=C(NCc1ccccc1)c1c(O)c2ccccc2[nH]c1=O`: the pEC50 is less than 3.70 and the pIC50 is less than 3.70. Regarding `COc1ccc(CCn2cnn3c(=O)c4ccccc4nc3c2=O)cc1OC`, the pEC50 was less than 4.86 and the negative-log IC50 (pIC50) is less than 4.86. On to `COc1c(C(C)C)cc2c3c1OC(=O)[C@@]31CCCC(C)(C)C1CC2` (stereo not given in full), for which the pEC50 was less than 3.70 and the negative logarithm of the IC50 (pIC50) is 4.51. The matching figures for `NC(N)=NCCS(=O)(=O)O`: less than 3.70 and less than 3.70. Regarding `Cn1ccc(-c2cn(C)c3ccnn3c2=O)n1`, the pEC50 is less than 3.70 and the negative-log IC50 (pIC50) is less than 3.70. `Cc1cc2c(C(C)C)c(O)c(O)c(C=Nc3cccc(Cl)c3)c2c(O)c1-c1c(C)cc2c(C(C)C)c(O)c(O)c(C=Nc3cccc(Cl)c3)c2c1O`: the result was inactive. For the molecule `COc1ccc2c(c1)C(=O)[C@@](Nc1ccc(C=O)cc1)(OC)[C@@](OC)(c1ccc([N+](=O)[O-])cc1)O2`, the pEC50 is less than 3.70 and the negative-log IC50 (pIC50) is 4.07.

With `CCCCOC(=O)C(=O)C(CC(C(=O)Cc1ccccc1)c1ccccc1)C(=O)C=C(C)C` (stereo not given), the pEC50 was less than 3.95 and the negative logarithm of the IC50 (pIC50) is less than 3.95.

Regarding `C(/Cc1ccc2c(c1)OCO2)=N\NC1=NCCCN1`, the pEC50 was less than 3.70 and the negative-log IC50 (pIC50) is 4.41. As to `O=[N+]([O-])C1(C2([N+](=O)[O-])CCCC2)CCCC1`, the pEC50 was 4.35 and the pIC50 is 3.96. For the molecule `c1ccc(-n2cnnc2-c2nsc3ccccc23)cc1`, the pEC50 was less than 4.03 and the pIC50 was less than 4.03. As for `O=C1c2cccnc2S(=O)(=O)N1c1ccc(Oc2ccccc2)cc1`, the pEC50 is less than 3.70 and the pIC50 is less than 3.70. Consider `COC1/C=C\OC2(C)Oc3c(C)c(O)c4c(O)c(c(/C=N\N(C)C)c(O)c4c3C2=O)NC(=O)/C(C)=C\C=C/C(C)C(O)C(C)C(O)C(C)C(OC(C)=O)C1C` (stereo not given), for which the pEC50 was less than 3.70 and the negative logarithm of the IC50 (pIC50) is 4.89. Regarding `CCCCCCCCCCCCCCCC(=O)OCC(COP(=O)(O)OCCNC(=O)CCSSc1ccccn1)OC(=O)CCCCCCCCCCCCCCC` (stereo not given), the pEC50 was less than 4.30 and the pIC50 was 4.43. For `O=C(O)CC1CC=CCC1CC(=O)O` (stereo not given), the pEC50 was less than 3.70 and the negative-log IC50 (pIC50) is less than 3.70.

For `c1ccc2c3[nH]c(c2c1)=Nc1ccc(cc1)-c1nc2ccc(cc2o1)N=c1[nH]c(c2ccccc12)=Nc1ccc2nc(oc2c1)-c1ccc(cc1)N=3`, the pEC50 was less than 3.70 and the pIC50 was 4.43.

For `O=C(NCc1ccc(O)cc1O)c1ccccc1O`, the pEC50 was less than 3.70 and the negative logarithm of the IC50 (pIC50) is 3.86.

On to `Cc1cc(Cl)ccc1NC(=O)C(=O)Cc1occc(=O)c1O`, for which the pEC50 is less than 3.53 and the negative-log IC50 (pIC50) was less than 3.53. In the case of `O=C1c2ccccc2-c2c1c1ccccc1c(=O)n2Cc1ccccc1`, the pEC50 was less than 4.53 and the negative logarithm of the IC50 (pIC50) is less than 4.53.

Regarding `Cc1ccc2c(c1)S(=O)c1cc(C)ccc1S2`, the outcome was inactive and the negative logarithm of the IC50 (pIC50) is 4.84. `NCCCN(CCCN)CCN(CCN(CCCN)CCCN)CCN(CCCN)CCCN`: the pEC50 is less than 3.70 and the pIC50 was 4.24. For `COC(=O)c1ccc(OCCn2nnc(C(=O)NN)c2C(=O)NN)cc1`, the pEC50 was less than 4.00 and the pIC50 is less than 4.00.

Regarding `CC(C)(C)OC(=O)NC(Cc1ccc([N+](=O)[O-])cc1)C(=O)NCC(=O)OCc1ccccc1` (stereo not given) (Boc-[ξPhe(4-NO2)]-Gly-OBn), the pEC50 is less than 3.70 and the pIC50 was 4.48.

On to `NC(N)=NS(=O)(=O)c1ccc(NNc2c3ccccc3nc3c(C(=O)Nc4ccc(S(N)(=O)=O)cc4)cccc23)cc1`, for which the pEC50 is less than 3.70 and the negative-log IC50 (pIC50) was 4.99.

As for `Cc1cc(-c2ccc(C(=O)C(c3ccccc3)(c3ccccc3)c3ccccc3)[nH]2)on1`, the pEC50 is less than 3.70 and the pIC50 is 4.73. Regarding `CNC(=O)CNC(=O)C(Cc1ccc(NC(=O)CCCCC(C)=O)cc1)NC(=O)C(CCC(=O)OCc1ccccc1)NC(=O)OC(C)(C)C` (stereo not given), the pEC50 is less than 3.70 and the negative logarithm of the IC50 (pIC50) is less than 3.70. As to `O=C(O)c1ccccc1C(=O)Nc1ccc(S(=O)(=O)Nc2nccs2)cc1`, the pEC50 is less than 3.70 and the negative logarithm of the IC50 (pIC50) is less than 3.70. On to `CCCc1cc(=O)oc2c3c(cc(OC(C)C)c12)O[C@H](C)[C@@H](C)[C@H]3O`, for which the pEC50 is less than 3.70 and the pIC50 was 4.92. For `O=c1c2ccccc2oc2cc3c(c(O)c12)CCCC3`, the pEC50 is less than 3.70 and the negative-log IC50 (pIC50) is less than 3.70. With `COC(=O)c1cc(C(=CCCCCN=[N+]=[N-])c2cc(Cl)c(OC)c(C(=O)OC)c2)cc(Cl)c1OC`, the pEC50 was 4.72 and the pIC50 was less than 3.70. Take `O=C(O)c1cc2ccc(Cl)cc2c(O)c1C1=CCCCC1`: the pEC50 is less than 3.78 and the negative-log IC50 (pIC50) was 4.47. For `COC(=O)[n+]1cc2c3cccc[n+]3c(N(C)C)n2c2ccccc21`, the pEC50 is less than 3.70 and the pIC50 is 4.78. In the case of `C#CCC(N)(CO)C(=O)O` (stereo not given), the outcome was inactive. As to `CNC(=O)c1ccc(C(=O)NCCCCCN(O)C(=O)CCC(=O)NCCCCCN(O)C(=O)CCC(=O)NCCCCCN(O)C(C)=O)c(O)c1O`, the pEC50 was less than 4.00 and the pIC50 was 4.16. Regarding `O=C(O)CCCCCCCCCC(=O)O`, the pEC50 is less than 3.10 and the pIC50 is less than 3.10. Consider `CCCCCCCCCCCC(=O)OCCOCCOCCOCCOCCOC(=O)CCCCCCCCCCC`, for which the result was inactive. Regarding `O=C(OCc1ccccc1)c1ccccc1-c1c2ccc(=O)cc-2oc2cc(OCc3ccccc3)ccc12`, the pEC50 was less than 5.29 and the negative-log IC50 (pIC50) was less than 5.29. As to `Cc1oc2ccccc2c(=O)c1C`, the result was inactive.

As to `O=C(Nc1cccc([N+](=O)[O-])c1)C(=O)C(C(=O)c1ccccc1-c1ccccc1)C1OC(=O)c2ccccc21` (stereo not given), the pEC50 is less than 4.16 and the negative-log IC50 (pIC50) was 4.48. Turning to `Nc1nc(Cl)nc2c1ncn2C1CCC(COP(=O)(O)OP(=O)(O)OP(=O)(O)O)O1` (stereo not given), the result was active. In the case of `O=C(O)c1cccc(/C=C/c2ccc(N=Nc3c(O)cc(O)cc3C(=O)O)cc2C(=O)O)c1`, the pEC50 is less than 3.70 and the pIC50 is 3.80. On to `CCOC1OC(CO[Si](C)(C)C(C)(C)C)C(O)CC1n1ccc(=O)[nH]c1=O` (stereo not given), for which the pEC50 is less than 3.70 and the negative logarithm of the IC50 (pIC50) is 4.50. Consider `O=C1C(CN2CCCCC2)CCCC1CN1CCCCC1` (stereo not given), for which the pEC50 was less than 3.26, the outcome was inactive and the pIC50 was 5.21. As for `Cc1c(C)c(C)c(-n2c(=O)n(C)c(=O)n2-n2c(=O)n(C)c(=O)n2-c2c(C)c(C)c(C)c(C)c2C)c(C)c1C`, the pEC50 was less than 4.00 and the pIC50 is 5.20.

As to `COC(=O)C(Cc1ccc(O)cc1)NC(=O)C(COCc1ccccc1)NC(=O)OCc1ccccc1` (stereo not given) (Cbz-Ser(Bn)-Tyr-OMe; configuration not given here), the pEC50 was less than 3.70 and the pIC50 was 4.52. Consider `CC1=NS(=O)(=O)c2ccccc2N1`, for which the pEC50 was less than 2.90 and the negative logarithm of the IC50 (pIC50) was less than 2.90. Regarding `CC(=O)N=c1ccc2nc(N)nn(O)c-2c1`, the pEC50 was less than 3.70 and the negative logarithm of the IC50 (pIC50) is less than 3.70.

Take `COc1ccccc1NC(=O)CC(=O)n1nc(C)c(N=Nc2ccccc2C(=O)O)c1C`: the pEC50 is less than 3.52 and the pIC50 is 3.61. In the case of `O=C(N/C(=C\c1cc(Cl)ccc1Cl)c1nc2ccc(Cl)cc2[nH]1)c1ccccc1`, the outcome was inactive. As for `O=C(O)c1ccc2c(c1)S(=O)(=O)c1ccccc1C2=O`, the pEC50 was less than 3.70 and the negative logarithm of the IC50 (pIC50) was less than 3.70. In the case of `O=C(CCc1ccc(O)cc1)NCCc1ccc(O)cc1`, the pEC50 is 4.41 and the negative logarithm of the IC50 (pIC50) was 3.78. Take `Cc1noc2c1NC(=O)OC(C)(C)C2`: the pEC50 was less than 3.35 and the pIC50 is less than 3.35. For the molecule `N#Cc1cnc(-n2[nH]c3c(c2=O)CCCC3)[nH]c1=O`, the outcome was inactive. With `O=C1C2=C(SCCS2)C(=O)c2ccccc21`, the pEC50 is less than 4.37 and the pIC50 was 6.17. As for `CC(=O)Nc1cnc2c(nc3cc(C)ccn32)c1C`, the pEC50 was less than 4.13 and the negative logarithm of the IC50 (pIC50) was less than 4.13.

For `O=NN1CCN=C1c1ccc([N+](=O)[O-])cc1`, the pEC50 was less than 3.95 and the pIC50 was 4.47. Regarding `Cc1c(Cl)cccc1Nc1ncccc1C(=O)OCC(O)CO` (stereo not given), the pEC50 is less than 3.70 and the pIC50 was 4.04.

Take `C[n+]1c(-c2ccc(/C=N\Nc3nnc(S)n3/N=C/c3ccc(-c4cn5ccccc5[n+]4C)cc3)cc2)cn2ccccc21`: the pEC50 is 4.18 and the negative logarithm of the IC50 (pIC50) was 4.17. On to `COc1ccc(C/C=C(\C)CCO)cc1`, for which the pEC50 was less than 3.70 and the pIC50 is 3.90.

For the molecule `CC(C)NC(=O)OCc1c(COC(=O)NC(C)C)n(C)c2c1ccc1sccc12`, the pEC50 is less than 3.70 and the negative-log IC50 (pIC50) was 5.67. As to `O=c1c2ccccc2[nH]c(=S)n1-c1ccc(Cl)cc1`, the pEC50 is less than 3.70 and the negative logarithm of the IC50 (pIC50) is less than 3.70.

For `CC(=O)C1C(=O)C(=O)N(c2ccc(Br)cc2)C1=O` (stereo not given), the outcome was inactive. As for `Cc1cc(O)c(/C=N/C(N)=S)c(=O)o1`, the pEC50 was less than 3.70 and the negative logarithm of the IC50 (pIC50) was less than 3.70. Consider `O=C1c2ccccc2Sc2ccccc2N1C(=O)C1CC1`, for which the pEC50 was 4.40 and the pIC50 is 4.26.

The values above are taken from PubChem BioAssay AID179 (DTP/NCI, 2004).
